Assay results published in article PMC3669009, “Degradation of Phytate by the 6-Phytase from Hafnia alvei: A Combined Structural and Solution Study” (PLoS ONE, 2013).

Legend:
[1] = target: T1, HaPhy (Hafnia alvei phytase) (Hafnia alvei, UniProt H9TUK5); experiment: X-ray crystal structure of the complex, […] Å; type: binding; settings: 0.2 M potassium/sodium tartrate, pH 8.4-9.1 (from crystallisation solution); active site; second tartrate at occupancy 0.25
T1 construct: gene phyA; recombinant mature enzyme, purified, residues 1-416; expression details only in SI; monomer in the asymmetric unit; four disulphides
T1 sequence (H9TUK5 34-446): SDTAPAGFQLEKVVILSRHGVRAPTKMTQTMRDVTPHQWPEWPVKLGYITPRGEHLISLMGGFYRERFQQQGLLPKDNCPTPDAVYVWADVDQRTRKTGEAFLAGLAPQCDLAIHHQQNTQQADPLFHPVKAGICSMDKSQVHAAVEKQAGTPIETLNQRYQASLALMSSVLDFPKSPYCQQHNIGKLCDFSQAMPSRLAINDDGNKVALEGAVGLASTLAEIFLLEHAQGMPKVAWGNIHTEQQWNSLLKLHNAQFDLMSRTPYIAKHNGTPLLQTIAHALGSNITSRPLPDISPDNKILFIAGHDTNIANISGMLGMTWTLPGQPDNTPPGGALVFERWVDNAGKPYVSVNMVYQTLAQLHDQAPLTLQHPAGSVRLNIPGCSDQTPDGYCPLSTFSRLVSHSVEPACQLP

[2] = target: T2, YkPhy (Yersinia kristensenii phytase) (Yersinia kristensenii, UniProt H9TUK6); settings: SPGS buffer pH 5.0 (phosphate from crystallisation solution); two Pi in the active site
T2 construct: gene phyA

[3] = target: T1, HaPhy (Hafnia alvei phytase); experiment: isothermal titration calorimetry; type: binding

T2 sequence (H9TUK6 entry or part of it): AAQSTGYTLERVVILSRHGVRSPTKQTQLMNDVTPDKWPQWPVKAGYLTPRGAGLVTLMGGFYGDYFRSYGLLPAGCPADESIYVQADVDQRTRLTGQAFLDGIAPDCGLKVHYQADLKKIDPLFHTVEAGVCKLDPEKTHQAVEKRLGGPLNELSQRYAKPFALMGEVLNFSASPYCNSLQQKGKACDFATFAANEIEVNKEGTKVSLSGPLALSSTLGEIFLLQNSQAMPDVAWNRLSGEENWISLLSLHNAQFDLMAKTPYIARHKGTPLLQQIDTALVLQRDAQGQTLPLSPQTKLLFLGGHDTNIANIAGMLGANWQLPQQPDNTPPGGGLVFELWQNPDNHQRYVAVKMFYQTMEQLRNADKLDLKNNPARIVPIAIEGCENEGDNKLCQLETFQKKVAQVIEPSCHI

O=C(O)C(O)C(O)C(=O)O (stereo not drawn) [L(+)-tartrate]
X-ray crystal structure of the complex, 1.60 Å [1]: The active site contained a tartrate molecule, a component of the crystallisation buffer

O=P(O)(O)O [Pi, phosphate]
X-ray crystal structure of the complex, 1.67 Å [2]: Each monomer contains two Pi molecules in its active site

O=S(=O)(O)O[C@H]1[C@H](OS(=O)(=O)O)[C@@H](OS(=O)(=O)O)[C@H](OS(=O)(=O)O)[C@@H](OS(=O)(=O)O)[C@H]1OS(=O)(=O)O [MIHS, myo-inositol hexakissulphate]
Kd [3]: ~160 nM
